Test results from patent publication US10881636B2, “Dihydroartemisinin-steroid conjugate and preparation method and application thereof” (YUNBAIYAO ZHENGWU SCIENCE AND TECHNOLOGY (SHANGHAI) CO., …, priority 2017, dated 2021).
Read-outs that look alike come from different tables or passages of the source.

Tests used:
[1] = Cytotoxicity on normal cells, CCK-8 assay; assay type: cell-based; conditions: African green monkey
Procedure: (§1) African green monkey kidney cells-Vero cells (CCL-81) were used as normal cells to evaluate the cytotoxic effects of the compounds. Under the intervention of such compounds, the living cells can be stained using a cell proliferation-cytotoxicity assay kit Cell Counting Kit-8 (CCK-8 solution), and the OD value was measured to reflect the survival and growth state of the cells, that is, the cell survival rate (%) and the cell growth inhibition rate (%).
(§2) The culture solution containing 10% FBS was regarded as a complete medium. […] After all the cells were cultured to logarithmic growth phase, the tests were performed as follows.
(§3) The adherent cells were digested by pancreatin and suspended to directly collect cells. The cell suspension was centrifuged, and after counted, the cells were seeded in a transparent 96-well culture plate and adjusted to 5×10^3 cells/100 μL/well with respective complete mediums. At the same time, each plate was provided with blank wells without cells and samples and control wells with cells but without samples. The 96-well culture plates were then cultured overnight in a 37° C., 5% CO2 incubator. The test compounds were added at 50 μL/well on the next day, and respective complete mediums were added at the same amount. […] While for the control wells and blank wells, complete mediums rather than the compound samples were added, where the complete culture medium was also added at 100 μL/well. […] 2 h before the end of the incubation, the culture medium was removed, and complete culture medium containing 10% CCK-8 solution was added at 100 μL/well.
(§4) The CC50 was calculated according to the survival rate (%) of Vero cells to reflect the cytotoxic effect of the compounds. The IC50 was calculated according to the growth inhibition (%) of the tumor cells to reflect the antitumor activity of the samples.

Jurkat cells (TIB-152) = assay: Tumor cell growth inhibition, CCK-8 assay; assay type: cell-based; conditions: Homo sapiens, 48 h, CCK-8, growth inhibition
Procedure: as §1, §2, §3, §4

HeLa cells (CCL-2) = assay: Tumor cell growth inhibition, CCK-8 assay; assay type: cell-based; conditions: Homo sapiens, 48 h, CCK-8, growth inhibition
Procedure: as §1, §2, §3, §4

PC-3 cells (CRL-1435) = assay: Tumor cell growth inhibition, CCK-8 assay; assay type: cell-based; conditions: Homo sapiens, 48 h, CCK-8, growth inhibition, read-out: PC3 IC50
Procedure: as §1, §2, §3, §4

786-O cells (CRL-1932) = assay: Tumor cell growth inhibition, CCK-8 assay; assay type: cell-based; conditions: Homo sapiens, 786-0; 48 h, CCK-8, growth inhibition
Procedure: as §1, §2, §3, §4

MCF7 cells (HTB-22) = assay: Tumor cell growth inhibition, CCK-8 assay; assay type: cell-based; conditions: Homo sapiens, 48 h, CCK-8, growth inhibition
Procedure: as §1, §2, §3, §4

A549 = assay: Tumor cell growth inhibition; assay type: cell-based; conditions: Homo sapiens
Procedure: as §3, §4

U87 = assay: Inhibitory effects on various tumor cells; assay type: cell-based; conditions: Homo sapiens, U-87 MG
Procedure: as §3, §4

RCC-4 = assay: Inhibitory effects on various tumor cells; assay type: cell-based; conditions: Homo sapiens, RCC4; RCC-4 cells
Procedure: as §3, §4

U2OS = assay: Inhibitory effects on various tumor cells; assay type: cell-based; conditions: Homo sapiens
Procedure: as §3, §4

NB4 = assay: Inhibitory effects on various tumor cells; assay type: cell-based; conditions: Homo sapiens, NB-4
Procedure: as §3, §4

K562 = assay: Inhibitory effects on various tumor cells; assay type: cell-based; conditions: Homo sapiens
Procedure: as §3, §4

HC7116 = assay: Inhibitory effects on various tumor cells; assay type: cell-based
Procedure: as §3, §4

OV-90 = assay: Inhibitory effects on various tumor cells; assay type: cell-based; conditions: Homo sapiens; OV-90 cells
Procedure: as §3, §4

HEPG-2 = assay: Inhibitory effects on various tumor cells; assay type: cell-based; conditions: Homo sapiens, HepG2; HEPG-2 cells
Procedure: as §3, §4

RCC4 vhl = assay: Inhibitory effects on various tumor cells; assay type: cell-based; conditions: Homo sapiens
Procedure: as §3, §4

DU-145 = assay: Inhibitory effects on various tumor cells; assay type: cell-based; conditions: Homo sapiens; DU-145 cells
Procedure: as §3, §4

Kasumi = assay: Inhibitory effects on various tumor cells; assay type: cell-based
Procedure: as §3, §4

SW1990 = assay: Inhibitory effects on various tumor cells; assay type: cell-based; conditions: Homo sapiens
Procedure: as §3, §4

[2] = test system: human non-small cell lung cancer cells A549; assay: Xenograft model of human lung cancer cell A549; conditions: nude mice, 10 mg/kg intraperitoneal, 28 days; for deaths during treatment: JZ-02 group 9 mice, paclitaxel group 5 mice; for tumor inhibition rate: from tumor tissue weight
Description: 23 BALB/c nude mice, weighing 18-22 g and aged 2-4 weeks, were used in the experiment.

[3] = Vero normal cells, 48 h, CCK-8, cell survival rate, read-out: Vero CC50

Compound	CC50 at 48 h [1] [nM]	IC50 (Jurkat cells (TIB-152)) [nM]	IC50 (HeLa cells (CCL-2)) [nM]	IC50 (PC-3 cells (CRL-1435)) [nM]	IC50 (786-O cells (CRL-1932)) [nM]	IC50 (MCF7 cells (HTB-22)) [nM]	IC50 (A549) [nM]	CC50 at 48 h [1, 3] [nM]	IC50 (RCC-4) [nM]	IC50 (U2OS) [nM]	IC50 (NB4) [nM]	IC50 (K562) [nM]	IC50 (HC7116) [nM]	IC50 (OV-90) [nM]	IC50 (HEPG-2) [nM]	IC50 (RCC4 vhl) [nM]	IC50 (DU-145) [nM]	IC50 (Kasumi) [nM]	IC50 (SW1990) [nM]	deaths during treatment [2]	further results
C[C@H]1[C@@H](O)O[C@@H]2O[C@@]3(C)CC[C@H]4[C@H](C)CC[C@@H]1[C@@]24OO3 [Dihydroartemisinin]	5880	100000	1660	2020	1100	100000	2960														
C[C@H]1C(O[C@@H]2CC[C@@]3(C)C(C2)C[C@H](O)C2C3CC[C@@]3(C)C2CC[C@@H]3[C@H](C)CCC(=O)O)OC2OC3(C)CCC4[C@H](C)CCC1[C@@]24OO3 (stereo partly drawn) [JZ-2]		240	40	260	60	3390	20	7810	2500	357	157	157	157	157	500	30000	625	157	517	no death	IC50 (U87): 517 nM; tumor growth (tumor growth curve, FIG. 1) [2]: significantly inhibit the tumor growth; tumor inhibition rate [2]: 58%
C[C@H]1C(O[C@@H]2CC[C@@]3(C)C(C2)C[C@@H](O)C2C3CC[C@@]3(C)C2CC[C@@H]3[C@H](C)CCC(=O)O)OC2O[C@@]3(C)CCC4[C@H](C)CCC1[C@@]24OO3 (stereo partly drawn) [JZ-4]		32000	25000	25000	100000	35000	2400	100000													
CC(C)[C@@H](C)/C=C/[C@@H](C)[C@H]1CCC2C3=CC=C4CC(OC5OC6OC7(C)CCC8[C@H](C)CCC([C@H]5C)[C@@]68OO7)CC[C@]4(C)C3CC[C@@]21C (stereo partly drawn) [JZ-6]	100000	34000	100000	100000	100000	45000	6330														
CC(=O)O[C@H]1C(=O)[C@@]2(C)[C@H]([C@H](OC(=O)c3ccccc3)[C@]3(O)C[C@H](OC(=O)[C@H](O)[C@@H](NC(=O)c4ccccc4)c4ccccc4)C(C)=C1C3(C)C)[C@]1(OC(C)=O)CO[C@@H]1C[C@@H]2O [Taxol, paclitaxel, reference compound]	1500	30	6	6	6	10	6		10000	10	10	10	10	10	10	30000	10	10	10	one death	tumor inhibition rate [2]: 52%
